Measured values published in the NIST ThermoML archive (doi:10.1016/j.jct.2012.06.015).

Experiment: xn = mol fraction of the nth substance listed
Settings: 101 kPa, Liquid, Vibrating tube method

Cn1ccnc1 [1-methylimidazole] + O
mass density [kg/m3]
Settings | 288.15 K | 293.15 K | 298.15 K | 303.15 K | 308.15 K | 313.15 K | 318.15 K | 323.15 K
x1 = 0.0443 | 1010.2 | 1008.3 | 1006.2 | 1003.9 | 1001.6 | 999.2 | 996.6 | 994.2
x1 = 0.1036 | 1022.1 | 1019.3 | 1016.5 | 1013.3 | 1010.2 | 1007.1 | 1003.9 | 1000.9
x1 = 0.2167 | 1037.4 | 1033.7 | 1030.1 | 1026 | 1022.1 | 1018.2 | 1014.3 | 1010.6
x1 = 0.3003 | 1044.4 | 1040.3 | 1036.3 | 1031.9 | 1027.8 | 1023.6 | 1019.3 | 1015.4
x1 = 0.4024 | 1048.9 | 1044.6 | 1040.5 | 1035.9 | 1031.5 | 1027.2 | 1022.7 | 1018.6
x1 = 0.4982 | 1050.2 | 1045.8 | 1041.6 | 1036.8 | 1032.4 | 1028 | 1023.5 | 1019.3
x1 = 0.5902 | 1049.3 | 1044.7 | 1040.5 | 1035.7 | 1031.3 | 1026.9 | 1022.5 | 1018.4
x1 = 0.7159 | 1046.7 | 1042.2 | 1038 | 1033.2 | 1028.8 | 1024.4 | 1020 | 1015.9
x1 = 0.7795 | 1044.7 | 1040.2 | 1036 | 1031.2 | 1026.8 | 1022.4 | 1018 | 1013.9
x1 = 0.8907 | 1041.8 | 1037.4 | 1033.3 | 1028.5 | 1024.1 | 1019.7 | 1015.3 | 1011.2
x1 = 1 | 1039.4 | 1035 | 1030.9 | 1026.1 | 1021.7 | 1017.3 | 1012.9 | 1008.8

O [water] + Cn1ccnc1
Settings | mass density [kg/m3]
318.15 K, x2 = 0 | 990.1
